This passage reports EC50 results from ChEMBL document CHEMBL1932926, “New substituted C-19-andrographolide analogues with potent cytotoxic activities” (2012).

Holding throughout (format): functional
What all share (conditions): read-out: ED50 (the source's name)

Assay [1] concerns P388. In words: Cytotoxicity against mouse P388 cells by SRB assay.
Assay [2] deals with KB. In words: Cytotoxicity against human KB cells by SRB assay. (The SRB assay estimates cell density from bound dye.)
Assay [3] relates to Col2. In words: Cytotoxicity against human Col2 cells by SRB assay.
For assay [4], the system named is MCF7. The experiment in a line: Cytotoxicity against human MCF7 cells by SRB assay.
Assay [5] relates to Lu1. The experiment in a line: Cytotoxicity against human Lu1 cells by SRB assay.
Assay [6] is described as follows: Cytotoxicity against rat ASK cells by SRB assay.

Take `C=C1CC[C@@H]2[C@](C)(CO[Si](c3ccccc3)(c3ccccc3)C(C)(C)C)[C@H](OC(C)=O)CC[C@@]2(C)[C@@H]1C/C=C1/C(=O)OC[C@H]1O`: the EC50 is 500 nM in assay [1]; 9.86 µM in assay [2]; 3.8 µM in assay [3]; 7.53 µM in assay [4]; 10.9 µM in assay [5]; 10.5 µM in assay [6].

For the compound `C=C1CC[C@@H]2[C@](C)(CO)[C@H](OC(C)=O)CC[C@@]2(C)[C@@H]1C/C=C1/C(=O)OC[C@H]1O`, the EC50 in assay [1] was 4780 nM; in assay [2], 35.6 µM; in assay [3] it was 27.2 µM; in assay [4], 26.4 µM; in assay [5] it was 30.6 µM; in assay [6] it was 58.1 µM.

Consider `C=C1CC[C@@H]2[C@](C)(CO[Si](c3ccccc3)(c3ccccc3)C(C)(C)C)[C@H](OC(C)=O)CC[C@@]2(C)[C@@H]1C/C=C1/C(=O)OC[C@H]1OC(C)=O`, for which the EC50 came to 1670 nM in assay [1]; 29 µM in assay [2]; 12.3 µM in assay [3]; 45.7 µM in assay [4]; 52.9 µM in assay [5]; 32.8 µM in assay [6].

Turning to `C=C1CC[C@@H]2[C@](C)(CO[Si](C(C)C)(C(C)C)C(C)C)[C@H](OC(C)=O)CC[C@@]2(C)[C@@H]1C/C=C1/C(=O)OC[C@H]1OC(C)=O`, the EC50 in assay [1] is 1410 nM; in assay [2], 7.39 µM; in assay [3], 13.6 µM; in assay [4] it was 14 µM; in assay [5], 18.8 µM; in assay [6], 7.56 µM.

In the case of `C=C1CC[C@@H]2[C@](C)(COC(C)=O)[C@H](O)CC[C@@]2(C)[C@@H]1C/C=C1/C(=O)OC[C@H]1O`, the EC50 in assay [1] is 2040 nM; in assay [2], 15.3 µM; in assay [3], 12.9 µM; in assay [4] it was 18.2 µM; in assay [5], 14 µM; in assay [6], 16.7 µM.

Turning to `C=C1CC[C@@H]2[C@](C)(COC(c3ccccc3)(c3ccccc3)c3ccccc3)[C@H](O)CC[C@@]2(C)[C@@H]1C/C=C1/C(=O)OC[C@H]1O`, the EC50 was found to be 450 nM in assay [1]; 2.42 µM in assay [2]; 2.73 µM in assay [3]; 2.72 µM in assay [4]; 0.88 µM in assay [5]; 2.86 µM in assay [6].

For the compound `C=C1CC[C@@H]2[C@](C)(CO[Si](C)(C)C(C)(C)C)[C@H](O)CC[C@@]2(C)[C@@H]1C/C=C1/C(=O)OC[C@H]1OC(C)=O`, the EC50 in assay [1] is 1030 nM; in assay [2], 10.7 µM; in assay [3], 8.94 µM; in assay [4], 10.4 µM; in assay [5], 10.4 µM; in assay [6], 3.41 µM.

For the compound `C=C1CC[C@@H]2[C@](C)(COC(C)=O)[C@H](OC(C)=O)CC[C@@]2(C)[C@@H]1C/C=C1/C(=O)OC[C@H]1O`, the EC50 was found to be 2650 nM in assay [1]; 35.2 µM in assay [2]; 15.3 µM in assay [3]; 19.7 µM in assay [4]; 34.7 µM in assay [5]; 22.4 µM in assay [6].

Regarding `C=C1CC[C@@H]2[C@](C)(CO)[C@H](OC(C)=O)CC[C@@]2(C)[C@@H]1C/C=C1/C(=O)OC[C@H]1OC(C)=O`, the EC50 in assay [1] came out at 690 nM; in assay [2], 11.7 µM; in assay [3] it was 10.2 µM; in assay [4], 11 µM; in assay [5], 8.75 µM; in assay [6], 11.5 µM.

On to `C=C1CC[C@@H]2[C@](C)(CO[Si](C)(C)C(C)(C)C)[C@H](OC(C)=O)CC[C@@]2(C)[C@@H]1C/C=C1/C(=O)OC[C@H]1OC(C)=O`, for which the EC50 in assay [1] was found to be 340 nM; in assay [2] it was 3.62 µM; in assay [3], 2.23 µM; in assay [4], 2.84 µM; in assay [5], 2.92 µM; in assay [6], 1.22 µM.

With `C=C1CC[C@@H]2[C@](C)(COC(C)=O)[C@H](OC(C)=O)CC[C@@]2(C)[C@@H]1C/C=C1/C(=O)OC[C@H]1OC(C)=O`, the EC50 in assay [1] is 1400 nM; in assay [2], 11.6 µM; in assay [3], 10.8 µM; in assay [4] it was 10 µM; in assay [5] it was 12.4 µM; in assay [6], 11.4 µM.

Consider `C=C1CC[C@@H]2[C@](C)(CO[Si](C(C)C)(C(C)C)C(C)C)[C@H](O)CC[C@@]2(C)[C@@H]1C/C=C1/C(=O)OC[C@H]1O`, for which the EC50 in assay [1] was 880 nM; in assay [2], 2.73 µM; in assay [3], 2.73 µM; in assay [4] it was 2.88 µM; in assay [5], 3.01 µM; in assay [6] it was 2.85 µM.

On to `C=C1CC[C@@H]2[C@](C)(CO[Si](C)(C)C(C)(C)C)[C@H](OC(C)=O)CC[C@@]2(C)[C@@H]1C/C=C1/C(=O)OC[C@H]1O`, for which the EC50 in assay [1] worked out at 1710 nM; in assay [2], 11.2 µM; in assay [3] it was 11.3 µM; in assay [4], 9.79 µM; in assay [5], 9.62 µM; in assay [6], 8.17 µM.

Take `C=C1CC[C@@H]2[C@](C)(COC(C)=O)[C@H](O)CC[C@@]2(C)[C@@H]1C/C=C1/C(=O)OC[C@H]1OC(C)=O`: the EC50 in assay [1] came to 1620 nM; in assay [2], 26.4 µM; in assay [3] it was 15.2 µM; in assay [4], 18.5 µM; in assay [5], 19.8 µM; in assay [6], 16.3 µM.

For the compound `C=C1CC[C@@H]2[C@](C)(CO)[C@H](O)CC[C@@]2(C)[C@@H]1C/C=C1/C(=O)OC[C@H]1O` [ANDROGRAPHOLIDE], the EC50 in assay [1] is 2250 nM; in assay [2], 27.4 µM; in assay [3], 13.6 µM; in assay [4], 15.4 µM; in assay [5], 13 µM; in assay [6], 16.2 µM.

With `C=C1CC[C@@H]2[C@](C)(COC(c3ccccc3)(c3ccccc3)c3ccccc3)[C@H](OC(C)=O)CC[C@@]2(C)[C@@H]1C/C=C1/C(=O)OC[C@H]1OC(C)=O`, the EC50 stood at 1920 nM in assay [1]; 9.77 µM in assay [2]; 22.8 µM in assay [3]; 22.7 µM in assay [4]; 8.37 µM in assay [5]; 15.3 µM in assay [6].

As to `C=C1CC[C@@H]2[C@](C)(CO[Si](c3ccccc3)(c3ccccc3)C(C)(C)C)[C@H](O)CC[C@@]2(C)[C@@H]1C/C=C1/C(=O)OC[C@H]1OC(C)=O`, the EC50 in assay [1] is 330 nM; in assay [2], 10.5 µM; in assay [3], 10.7 µM; in assay [4], 9.63 µM; in assay [5], 11.9 µM; in assay [6] it was 12 µM.

For the compound `Cc1c2ccncc2c(C)c2c1[nH]c1ccccc12` [ELLIPTECINE], the EC50 turned out to be 2440 nM in assay [1]; 2.46 µM in assay [2]; 2.72 µM in assay [3]; 2.71 µM in assay [4]; 1.62 µM in assay [5]; 3.56 µM in assay [6].

Regarding `C=C1CC[C@@H]2[C@]3(C)COC(C)(C)O[C@@H]3CC[C@@]2(C)[C@@H]1C/C=C1/C(=O)OC[C@H]1O`, the EC50 stood at 3780 nM in assay [1]; 66.5 µM in assay [2]; 39.8 µM in assay [3]; 42.8 µM in assay [4]; 53 µM in assay [5]; 52.2 µM in assay [6].

In the case of `C=C1CC[C@@H]2[C@](C)(CO[Si](c3ccccc3)(c3ccccc3)C(C)(C)C)[C@H](O)CC[C@@]2(C)[C@@H]1C/C=C1/C(=O)OC[C@H]1O`, the EC50 in assay [1] was determined as 680 nM; in assay [2] it was 11.1 µM; in assay [3] it was 9.65 µM; in assay [4], 8.15 µM; in assay [5], 11.5 µM; in assay [6], 5.54 µM.

In the case of `C=C1CC[C@@H]2[C@](C)(CO[Si](C)(C)C(C)(C)C)[C@H](O)CC[C@@]2(C)[C@@H]1C/C=C1/C(=O)OC[C@H]1O`, the EC50 in assay [1] stood at 8390 nM; in assay [2], 40.7 µM; in assay [3], 17.1 µM; in assay [4], 47 µM; in assay [5] it was 48.8 µM; in assay [6] it was 15.5 µM.
